Test results: patent US20260176320A1, “MODULATORS OF G-PROTEIN COUPLED RECEPTORS” (priority 2018, published 2026)
Read-outs that look alike come from different tables or passages of the source. Numbered stars: 1 amine (or outer) side, 2 acyl side, 3 side chain; on linkers, the order of the positions; unused ones are H or OH. Square brackets hold non-standard residues; d marks the D form. Side chains are listed from the residue outwards. Peptide text beside a SMILES is read from it. * marks the point of attachment. γGlu = O=C(O)[C@H](CCC(=O)[*:2])N[*:1]; X2 = O=C(CSCC(=O)*)NCCN1C(=O)CSC1=O; Palmitoyl = CCCCCCCCCCCCCCCC(=O)*; Aib = CC(C)(N)C(=O)O

Key:
Assay type in all cases: cell-based
GLP-1R [1] = target: T1, GLP-1R (Homo sapiens, UniProt P43220); assay: HitHunter cAMP assay (GLP-1R); conditions: cAMP; for Emax: read-out: (Emax) GLP-1R
Outline: (§1)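 Agonist stimulation lasts 30 min at room temperature on 10,000 cells per well, with phosphodiesterase blocked by 625 μM IBMX. Accumulated cAMP is quantified by competitive antibody luminescence after overnight development.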

GIP-R = target: T2, GIP-R (Homo sapiens, UniProt P48546); assay: HitHunter cAMP assay (GIP-R); conditions: cAMP; for Emax: read-out: (Emax) GIP-R
T2 sequence (P48546 22-466): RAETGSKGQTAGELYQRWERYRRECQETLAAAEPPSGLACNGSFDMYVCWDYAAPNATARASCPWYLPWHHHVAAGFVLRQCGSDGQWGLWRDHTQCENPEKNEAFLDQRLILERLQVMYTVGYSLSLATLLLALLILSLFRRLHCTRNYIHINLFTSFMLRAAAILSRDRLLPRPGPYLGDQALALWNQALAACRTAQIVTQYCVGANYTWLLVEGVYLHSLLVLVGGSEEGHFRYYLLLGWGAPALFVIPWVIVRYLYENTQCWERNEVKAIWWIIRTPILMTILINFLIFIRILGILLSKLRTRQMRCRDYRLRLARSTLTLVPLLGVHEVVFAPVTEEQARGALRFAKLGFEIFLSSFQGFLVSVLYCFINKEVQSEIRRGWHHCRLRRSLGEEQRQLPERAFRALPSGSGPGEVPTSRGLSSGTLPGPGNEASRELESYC
Outline: as §1

GLP-1R [2] = target: T1, GLP-1R; assay: PathHunter β-arrestin assay
Outline: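 Recruitment of β-arrestin is measured by luminescence after cells, plated overnight, receive serially diluted agonist for 90 min at 37 °C in medium with 0.2% BSA. Detection reagent then develops for 3 h at room temperature, protected from light.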

[3] = Table 3, read-out: EC50 GLP-1R/nM
[4] = Table 3A, read-out: EC50 GLP-1R/nM
[5] = Table 3, read-out: EC50 GIP-R/nM
[6] = Table 3A, read-out: EC50 GIP-R/nM
[7] = PathHunter β-arrestin assay, read-out: β-arrestin activity EC50

T1 sequence (P43220 24-463): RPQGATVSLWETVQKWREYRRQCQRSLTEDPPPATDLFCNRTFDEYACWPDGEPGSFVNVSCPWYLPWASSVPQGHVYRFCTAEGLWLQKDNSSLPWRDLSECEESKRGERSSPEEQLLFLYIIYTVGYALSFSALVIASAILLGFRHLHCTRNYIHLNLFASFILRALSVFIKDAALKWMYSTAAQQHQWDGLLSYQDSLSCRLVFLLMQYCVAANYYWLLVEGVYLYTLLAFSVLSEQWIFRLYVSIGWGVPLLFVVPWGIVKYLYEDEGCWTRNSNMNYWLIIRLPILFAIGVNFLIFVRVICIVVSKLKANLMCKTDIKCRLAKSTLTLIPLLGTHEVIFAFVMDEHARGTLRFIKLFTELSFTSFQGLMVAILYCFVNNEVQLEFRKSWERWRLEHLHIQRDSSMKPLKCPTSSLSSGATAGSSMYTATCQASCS

Structure (SMILES)	Emax (GLP-1R [1]; Table 3) [%]	EC50 (GLP-1R [1]; [3]) [nM]	Emax (GLP-1R [1]; Table 3A) [%]	EC50 (GLP-1R [1]; [4]) [nM]	Emax (GIP-R; Table 3) [%]	EC50 (GIP-R; [5]) [nM]	Emax (GIP-R; Table 3A) [%]	EC50 (GIP-R; [6]) [nM]	EC50 (GLP-1R [2]; [7]) [nM]	EC50 (GLP-1R [1]; EC50 GLP-1R/nM, Table 3) [nM]	EC50 (GLP-1R [1]; EC50 GLP-1R/nM, Table 3A) [nM]	EC50 (GIP-R; EC50 GIP-R/nM, Table 3) [nM]	EC50 (GIP-R; EC50 GIP-R/nM, Table 3A) [nM]	EC50 (GLP-1R [2]) [nM]
CCCCCCCCCCCCCCCC(=O)N[C@@H](CCC(=O)NCCCC[C@H](NC(=O)[C@H](CO)NC(=O)[C@@H]1CCCN1C(=O)[C@@H]1CCCN1C(=O)[C@@H]1CCCN1C(=O)[C@H](C)NC(=O)CNC(=O)[C@H](CO)NC(=O)[C@H](CO)NC(=O)[C@@H]1CCCN1C(=O)CNC(=O)CNC(=O)[C@H](C)NC(=O)[C@H](CC(C)C)NC(=O)[C@H](CC(C)C)NC(=O)[C@H](Cc1c[nH]c2ccccc12)NC(=O)[C@H](CC(N)=O)NC(=O)[C@@H](NC(=O)[C@H](Cc1ccccc1)NC(=O)[C@H](CCC(=O)O)NC(=O)C(C)(C)NC(=O)[C@H](C)NC(=O)[C@H](C)NC(=O)[C@H](CCC(N)=O)NC(=O)[C@H](CCCCN)NC(=O)[C@H](CC(=O)O)NC(=O)[C@H](CCSC)NC(=O)[C@H](CCC(N)=O)NC(=O)[C@@H](NC(=O)[C@H](CO)NC(=O)[C@H](Cc1ccc(O)cc1)NC(=O)[C@H](CC(=O)O)NC(=O)[C@H](CO)NC(=O)[C@@H](NC(=O)[C@H](Cc1ccccc1)NC(=O)[C@@H](NC(=O)CNC(=O)[C@H](CCC(=O)O)NC(=O)CSCC(=O)NCCN1C(=O)CSC1=O)[C@@H](C)O)[C@@H](C)O)[C@@H](C)CC)C(C)C)C(N)=O)C(=O)O [Compound 72] (X2-EGTFTSDYSIQMDKQAA[Aib]EFVNWLLAGGPSSGAPPPSK([γGlu-Palmitoyl])-NH2)	105	0.1 to 1	105	0.1 to 1	87	0.1 to 1	87	0.1 to 1	> 1000					
CCCCCCCCCCCCCCCC(=O)N[C@@H](CCC(=O)NCCCC[C@H](NC(=O)[C@H](CO)NC(=O)[C@@H]1CCCN1C(=O)[C@@H]1CCCN1C(=O)[C@@H]1CCCN1C(=O)[C@H](C)NC(=O)CNC(=O)[C@H](CO)NC(=O)[C@H](CO)NC(=O)[C@@H]1CCCN1C(=O)CNC(=O)CNC(=O)[C@H](C)NC(=O)[C@H](CC(C)C)NC(=O)[C@H](CC(C)C)NC(=O)[C@H](Cc1c[nH]c2ccccc12)NC(=O)[C@H](CC(N)=O)NC(=O)[C@@H](NC(=O)[C@H](Cc1ccccc1)NC(=O)[C@H](CCC(=O)O)NC(=O)C(C)(C)NC(=O)[C@H](C)NC(=O)[C@H](C)NC(=O)[C@H](CCC(N)=O)NC(=O)[C@H](CCCCN)NC(=O)[C@H](CC(=O)O)NC(=O)[C@H](CC(C)C)NC(=O)[C@H](Cc1ccc(O)cc1)NC(=O)[C@@H](NC(=O)[C@H](CO)NC(=O)[C@H](Cc1ccc(O)cc1)NC(=O)[C@H](CC(=O)O)NC(=O)[C@H](CO)NC(=O)[C@@H](NC(=O)[C@H](Cc1ccccc1)NC(=O)[C@@H](NC(=O)CNC(=O)[C@H](CCC(=O)O)NC(=O)CSCC(=O)NCCN1C(=O)CC[C@@H](C)C1=O)[C@@H](C)O)[C@@H](C)O)[C@@H](C)CC)C(C)C)C(N)=O)C(=O)O [Compound 85]	103		103		83		83			1 to 10	1 to 10	0.1 to 1	0.1 to 1	> 1000
CCCCCCCCCCCCCCCC(=O)N[C@@H](CCC(=O)NCCCC[C@H](NC(=O)[C@H](CO)NC(=O)[C@@H]1CCCN1C(=O)[C@@H]1CCCN1C(=O)[C@@H]1CCCN1C(=O)[C@H](C)NC(=O)CNC(=O)[C@H](CO)NC(=O)[C@H](CO)NC(=O)[C@@H]1CCCN1C(=O)CNC(=O)CNC(=O)[C@H](C)NC(=O)[C@H](CC(C)C)NC(=O)[C@H](CC(C)C)NC(=O)[C@H](Cc1c[nH]c2ccccc12)NC(=O)[C@H](CC(N)=O)NC(=O)[C@@H](NC(=O)[C@H](Cc1ccccc1)NC(=O)[C@H](CCC(=O)O)NC(=O)C(C)(C)NC(=O)[C@H](C)NC(=O)[C@H](C)NC(=O)[C@H](CCC(N)=O)NC(=O)[C@H](CCCCN)NC(=O)[C@H](CC(=O)O)NC(=O)[C@H](CC(C)C)NC(=O)[C@H](Cc1ccc(O)cc1)NC(=O)[C@@H](NC(=O)[C@H](CO)NC(=O)[C@H](Cc1ccc(O)cc1)NC(=O)[C@H](CC(=O)O)NC(=O)[C@H](CO)NC(=O)[C@@H](NC(=O)[C@H](Cc1ccccc1)NC(=O)[C@@H](NC(=O)CNC(=O)[C@H](CCC(=O)O)NC(=O)CSCC(=O)NCCN1CCSC1=O)[C@@H](C)O)[C@@H](C)O)[C@@H](C)CC)C(C)C)C(N)=O)C(=O)O [Compound 86]	110	0.1 to 1	110	0.1 to 1	61	1 to 10	61	1 to 10	> 1000					
CCCCCCCCCCCCCCCC(=O)N[C@@H](CCC(=O)NCCCC[C@H](NC(=O)[C@H](CO)NC(=O)[C@@H]1CCCN1C(=O)[C@@H]1CCCN1C(=O)[C@@H]1CCCN1C(=O)[C@H](C)NC(=O)CNC(=O)[C@H](CO)NC(=O)[C@H](CO)NC(=O)[C@@H]1CCCN1C(=O)CNC(=O)CNC(=O)[C@H](C)NC(=O)[C@H](CC(C)C)NC(=O)[C@H](CC(C)C)NC(=O)[C@H](Cc1c[nH]c2ccccc12)NC(=O)[C@H](CC(N)=O)NC(=O)[C@@H](NC(=O)[C@H](Cc1ccccc1)NC(=O)[C@H](CCC(=O)O)NC(=O)C(C)(C)NC(=O)[C@H](C)NC(=O)[C@H](C)NC(=O)[C@H](CCC(N)=O)NC(=O)[C@H](CCCCN)NC(=O)[C@H](CC(=O)O)NC(=O)[C@H](CC(C)C)NC(=O)[C@H](Cc1ccc(O)cc1)NC(=O)[C@@H](NC(=O)[C@H](CO)NC(=O)[C@H](Cc1ccc(O)cc1)NC(=O)[C@H](CC(=O)O)NC(=O)[C@H](CO)NC(=O)[C@@H](NC(=O)[C@H](Cc1ccccc1)NC(=O)[C@@H](NC(=O)CNC(=O)[C@H](CCC(=O)O)NC(=O)CSCC(=O)NCCN1C(=O)CC[C@H](C)C1=O)[C@@H](C)O)[C@@H](C)O)[C@@H](C)CC)C(C)C)C(N)=O)C(=O)O [Compound 92]	94 to 104		94 to 104		85 to 88		85 to 88			1 to 10	1 to 10	0.1 to 1	0.1 to 1	> 1000
CCCCCCCCCCCCCCCC(=O)N[C@@H](CCC(=O)NCCCC[C@H](NC(=O)[C@H](CO)NC(=O)[C@@H]1CCCN1C(=O)[C@@H]1CCCN1C(=O)[C@@H]1CCCN1C(=O)[C@H](C)NC(=O)CNC(=O)[C@H](CO)NC(=O)[C@H](CO)NC(=O)[C@@H]1CCCN1C(=O)CNC(=O)CNC(=O)[C@H](C)NC(=O)[C@H](CC(C)C)NC(=O)[C@H](CC(C)C)NC(=O)[C@H](Cc1c[nH]c2ccccc12)NC(=O)[C@H](CC(N)=O)NC(=O)[C@@H](NC(=O)[C@H](Cc1ccccc1)NC(=O)[C@H](CCC(=O)O)NC(=O)C(C)(C)NC(=O)[C@H](C)NC(=O)[C@H](C)NC(=O)[C@H](CCC(N)=O)NC(=O)[C@H](CCCCN)NC(=O)[C@H](CC(=O)O)NC(=O)[C@H](CC(C)C)NC(=O)[C@H](Cc1ccc(O)cc1)NC(=O)[C@@H](NC(=O)[C@H](CO)NC(=O)[C@H](Cc1ccc(O)cc1)NC(=O)[C@H](CC(=O)O)NC(=O)[C@H](CO)NC(=O)[C@@H](NC(=O)[C@H](Cc1ccccc1)NC(=O)[C@@H](NC(=O)CNC(=O)[C@H](CCC(=O)O)NC(=O)CSCC(=O)N(C)CCN1C(=O)CSC1=O)[C@@H](C)O)[C@@H](C)O)[C@@H](C)CC)C(C)C)C(N)=O)C(=O)O [Compound 93]	99		99		73		73			0.1 to 1	0.1 to 1	1 to 10	1 to 10	> 1000
CCCCCCCCCCCCCCCC(=O)N[C@@H](CCC(=O)NCCCC[C@H](NC(=O)[C@H](CO)NC(=O)[C@@H]1CCCN1C(=O)[C@@H]1CCCN1C(=O)[C@@H]1CCCN1C(=O)[C@H](C)NC(=O)CNC(=O)[C@H](CO)NC(=O)[C@H](CO)NC(=O)[C@@H]1CCCN1C(=O)CNC(=O)CNC(=O)[C@H](C)NC(=O)[C@H](CC(C)C)NC(=O)[C@H](CC(C)C)NC(=O)[C@H](Cc1c[nH]c2ccccc12)NC(=O)[C@H](CC(N)=O)NC(=O)[C@@H](NC(=O)[C@H](Cc1ccccc1)NC(=O)[C@H](CCC(=O)O)NC(=O)C(C)(C)NC(=O)[C@H](C)NC(=O)[C@H](C)NC(=O)[C@H](CCC(N)=O)NC(=O)[C@H](CCCCN)NC(=O)[C@H](CC(=O)O)NC(=O)[C@H](CC(C)C)NC(=O)[C@H](Cc1ccc(O)cc1)NC(=O)[C@@H](NC(=O)[C@H](CO)NC(=O)[C@H](Cc1ccc(O)cc1)NC(=O)[C@H](CC(=O)O)NC(=O)[C@H](CO)NC(=O)[C@@H](NC(=O)[C@H](Cc1ccccc1)NC(=O)[C@@H](NC(=O)CNC(=O)[C@H](CCC(=O)O)NC(=O)CSCC(=O)NCCN1C(=O)SC(C)(C)C1=O)[C@@H](C)O)[C@@H](C)O)[C@@H](C)CC)C(C)C)C(N)=O)C(=O)O [Compound 94]	89		89		46		46			1 to 10	1 to 10	1 to 10	1 to 10	> 1000
